This is an account of results in ChEMBL document CHEMBL1124085, “Flavins as potential antimalarials. 1. 10-(Halophenyl)-3-methylflavins” (1988).

Molecules are shown by their SMILES.

The test system of assay [1] is Mus musculus. The experiment in a line: Parenteral antimalarial activity against Plasmodium vinckei vinckei in mice (Mus musculus) measured as % cured and increase in MST (days) at 25 mg/kg dose. It counts as functional.
The subject of assay [2] is Mus musculus. The experiment in a line: Parenteral antimalarial activity against Plasmodium vinckei in mice (Mus musculus) measured as % cured and increase in MST (days) at 15 mg/kg dose. Format: functional.
The subject of assay [3] is Mus musculus. The experiment in a line: Parenteral antimalarial activity against Plasmodium vinckei vinckei in mice (Mus musculus) measured as % cured and increase in MST (days) at 20 mg/kg dose. It counts as functional.
Assay [4] deals with Mus musculus. The experiment in a line: Oral antimalarial activity against Plasmodium vinckei in mice (Mus musculus) measured as % cured and increase in MST (days) at 25 mg/kg dose. It counts as functional.
Assay [5] has as its system Mus musculus. The experiment in a line: Oral antimalarial activity against Plasmodium vinckei in mice (Mus musculus) measured as % cured and increase in MST (days) at 50 mg/kg dose. It counts as functional.
For assay [6], the system named is Mus musculus. The experiment in a line: Oral antimalarial activity against Plasmodium vinckei in mice (Mus musculus) measured as % cured and increase in MST (days) at 75 mg/kg dose. It counts as functional.
Assay [7] deals with Mus musculus. The experiment in a line: Parenteral antimalarial activity against Plasmodium vinckei vinckei in mice (Mus musculus) measured as % cured and increase in MST (days) at 10 mg/kg dose. It counts as functional.
Assay [8] concerns Mus musculus. The experiment in a line: Oral antimalarial activity against Plasmodium vinckei vinckei in mice (Mus musculus) measured as % cured and increase in MST (days) at 100 mg/kg dose. It counts as functional.
In assay [9] the test system is Mus musculus. The experiment in a line: Oral antimalarial activity against Plasmodium vinckei vinckei in mice (Mus musculus) measured as % cured and increase in MST (days) at 150 mg/kg dose. Format: functional.
The test system of assay [10] is Mus musculus. The experiment in a line: Oral antimalarial activity against Plasmodium vinckei in mice (Mus musculus) measured as increase in mean survival time at 25 mg/kg dose. Format: functional.
Assay [11] deals with Mus musculus. The experiment in a line: Parenteral antimalarial activity against Plasmodium vinckei in mice (Mus musculus) measured as % cured and increase in MST (days) at 30 mg/kg dose.
Assay [12] deals with Mus musculus. The experiment in a line: Parenteral antimalarial activity against Plasmodium vinckei vinckei in mice (Mus musculus) measured as % cured and increase in MST (days) at 15 mg/kg dose. It counts as functional.
In assay [13] the test system is Mus musculus. The experiment in a line: Parenteral antimalarial activity against Plasmodium vinckei in mice (Mus musculus) measured as % cured and increase in MST (days) at 20 mg/kg dose. Format: functional.
Assay [14] has as its system Mus musculus. The experiment in a line: Parenteral antimalarial activity against Plasmodium vinckei in mice (Mus musculus) measured as % cured and increase in MST (days) at 25 mg/kg dose. Format: functional.
The test system of assay [15] is Mus musculus. The experiment in a line: Oral antimalarial activity against Plasmodium vinckei in mice (Mus musculus) measured as % cured and increase in MST (days) at 25 mg/kg dose. Format: functional.
In assay [16] the test system is Mus musculus. The experiment in a line: Oral antimalarial activity against Plasmodium vinckei vinckei in mice (Mus musculus) measured as % cured and increase in MST (days) at 50 mg/kg dose. It counts as functional.
Assay [17] relates to Mus musculus. The experiment in a line: Oral antimalarial activity against Plasmodium vinckei in mice (Mus musculus) measured as % cured and increase in MST (days) at 75 mg/kg dose. It counts as functional.
Assay [18] has as its system Mus musculus. The experiment in a line: Parenteral antimalarial activity against Plasmodium vinckei in mice (Mus musculus) measured as % cured and increase in MST (days) at 10 mg/kg dose. Format: functional.
Assay [19] has as its system Mus musculus. The experiment in a line: Oral antimalarial activity against Plasmodium vinckei vinckei in mice (Mus musculus) measured as % cured and increase in MST (days) at 100 mg/kg dose. Format: functional.
The test system of assay [20] is Mus musculus. The experiment in a line: Oral antimalarial activity against Plasmodium vinckei vinckei in mice (Mus musculus) measured as % cured and increase in MST (days) at 150 mg/kg dose. Format: functional.
Assay [21] concerns Mus musculus. The experiment in a line: Parenteral antimalarial activity against Plasmodium vinckei in mice (Mus musculus) measured as increase in mean survival time at 20 mg/kg dose; Toxic. It counts as functional.
Assay [22] concerns Mus musculus. The experiment in a line: Parenteral antimalarial activity against Plasmodium vinckei in mice (Mus musculus) measured as increase in mean survival time at 25 mg/kg dose; Toxic. Format: functional.
Assay [23] relates to Mus musculus. The experiment in a line: Parenteral antimalarial activity against Plasmodium vinckei in mice (Mus musculus) measured as increase in mean survival time at 10 mg/kg dose. Format: functional.
Assay [24] deals with Mus musculus. The experiment in a line: Parenteral antimalarial activity against Plasmodium vinckei in mice (Mus musculus) measured as increase in mean survival time at 15 mg/kg dose. Format: functional.
Assay [25] concerns Mus musculus. The experiment in a line: Oral antimalarial activity against Plasmodium vinckei in mice (Mus musculus) measured as increase in mean survival time at 100 mg/kg dose. Format: functional.
Assay [26] has as its system Mus musculus. The experiment in a line: Oral antimalarial activity against Plasmodium vinckei in mice (Mus musculus) measured as increase in mean survival time at 150 mg/kg dose. Format: functional.
Assay [27] concerns Mus musculus. The experiment in a line: Oral antimalarial activity against Plasmodium vinckei in mice (Mus musculus) measured as increase in mean survival time at 25 mg/kg dose. Format: functional.
The subject of assay [28] is Mus musculus. The experiment in a line: Oral antimalarial activity against Plasmodium vinckei vinckei in mice (Mus musculus) measured as increase in mean survival time at 50 mg/kg dose. Format: functional.
For assay [29], the system named is Mus musculus. The experiment in a line: Oral antimalarial activity against Plasmodium vinckei vinckei in mice (Mus musculus) measured as increase in mean survival time at 75 mg/kg dose. It counts as functional.

On to `Cn1c(=O)nc2n(-c3cc(Cl)cc(Cl)c3)c3ccccc3nc-2c1=O`, for which the Cured amounted to 100% in assay [1]; 100% in assay [2]; 100% in assay [3]; 60% in assay [4]; 100% in assay [5]; 100% in assay [6]. For the same compound, the Cured in [7], in [8], in [9] and in assay [11] was 100% each time. In addition, the MST in assay [10] came out at 3.5 days.

Take `Cn1c(=O)nc2n(-c3ccccc3Cl)c3ccccc3nc-2c1=O`: the Cured in assay [12], in assay [13], in assay [14], in [15], in assay [16] and in [17] was 0% throughout. Further, the Cured in [18], in [19] and in assay [20] was 0% each time. The MST in assay [21] was -0.2 days; in [22] it was -1.4 days; in [23], 0 days; in assay [24] it was 0 days; in assay [25] it was 0 days; in assay [26] it was 0 days. Also, the MST in assay [27], in assay [28] and in assay [29] was 0 days throughout.
